Measured values reported in ChEMBL document CHEMBL4390673, “Identification of Novel Coumestan Derivatives as Polyketide Synthase 13 Inhibitors against Mycobacterium tuberculosis. Part II” (J Med Chem, 2019).
Values after ≈ are worked out from the molar mass of the structure shown. Active and inactive are the calls of the source. The calls are words filed in the database; no cut-off is given here.

Tests used:
Vero = assay: Cytotoxicity against African green monkey Vero cells by microplate alamar blue assay; assay type: cell-based; details: Chlorocebus sabaeus
[1] = Selectivity index, ratio of IC50 for African green monkey Vero cells to MIC=; assay type: toxicity; details: read-out: Ratio IC50
[2] = system: Mycobacterium tuberculosis; assay: Antitubercular activity against Mycobacterium tuberculosis H37Rv measured after 7 days by alamar blue assay; assay type: functional; details: 168 h
Bacillus subtilis = assay: Growth inhibition of Bacillus subtilis 168; assay type: organism-based, subsp. subtilis str. 168
in vitro [3] = details: human, liver microsomes
Description: Half life in human liver microsomes

in vitro [4] = details: human, liver microsomes; remark: listed apart in the source
Description: Intrinsic clearance in human liver measured from intrinsic clearance in human liver microsomes

[5] = system: Mycobacterium tuberculosis; assay: Antitubercular activity against Mycobacterium tuberculosis H37Rv by microdilution method; assay type: functional
Escherichia coli [6] = assay: Growth inhibition of Escherichia coli DH5[alpha]; assay type: organism-based; details: in vivo
Escherichia coli [7] = assay: Growth inhibition of Escherichia coli AB1157; assay type: organism-based; details: in vivo
in vitro [8] = details: human, liver microsomes; remark: listed apart in the source
Description: Stability in human liver microsomes assessed as parent compound remaining measured after 60 mins

in vitro [9] = details: human, liver microsomes; remark: listed apart in the source
Description: Intrinsic clearance in human liver microsomes

HEK293 = assay: Cytotoxicity against HEK293 cells measured after 48 hrs by CellTiter 96 AQueous One Solution Cell Proliferation assay; assay type: cell-based; details: Homo sapiens, HEK293, 48 h
[10] = system: Mycobacterium tuberculosis; assay: Antitubercular activity against Mycobacterium tuberculosis H37Rv exposed to 1:1024 diluted serum from 50 mg/kg, po treated BALB/c mouse assessed as reduction in bacterial growth measured after 7 days by microplate alamar blue assay; assay type: functional, organism-based
[11] = system: Mycobacterium tuberculosis; assay: Antitubercular activity against Mycobacterium tuberculosis H37Rv exposed to serially diluted serum from 100 mg/kg, po treated BALB/c mouse assessed as reduction in bacterial growth measured after 7 days by microplate alamar blue assay; assay type: functional, organism-based
[12] = Cytotoxicity against human QSG7701 cells measured after 48 hrs by CellTiter 96 AQueous One Solution Cell Proliferation assay; assay type: cell-based; details: QSG7701, 48 h
MRC5 = assay: Cytotoxicity against human MRC5 cells measured after 48 hrs by CellTiter 96 AQueous One Solution Cell Proliferation assay; assay type: cell-based; details: MRC5, 48 h
HFL1 = assay: Cytotoxicity against HFL1 cells measured after 48 hrs by CellTiter 96 AQueous One Solution Cell Proliferation assay; assay type: cell-based; details: Homo sapiens, HFL1, 48 h
[13] = system: Mycobacterium tuberculosis; assay: Antitubercular activity against Mycobacterium tuberculosis H37Rv; assay type: functional
[14] = system: Mycobacterium tuberculosis; assay: Antitubercular activity against Mycobacterium tuberculosis H37Rv exposed to serially diluted serum from 10 mg/kg, po treated BALB/c mouse assessed as reduction in bacterial growth measured after 7 days by microplate alamar blue assay; assay type: functional, organism-based
[15] = system: Mycobacterium tuberculosis; assay: Antitubercular activity against Mycobacterium tuberculosis H37Rv measured after 7 days under aerobic condition by resazurin dye based assay; assay type: functional; details: 168 h
[16] = system: Mycobacterium tuberculosis; assay: Antitubercular activity against Mycobacterium tuberculosis H37Rv after 6 days by resazurin dye based fluorescence assay; details: 144 h
Staphylococcus aureus = assay: Growth inhibition of Staphylococcus aureus Newman; assay type: organism-based; details: in vivo
[17] = system: Mycobacterium tuberculosis; assay: Bactericidal activity against Mycobacterium tuberculosis H37Rv assessed as reduction in colony forming units incubated for 14 days followed by replating on 7H11 agar plates and measured by broth dilution method; assay type: functional

SMILES: Cc1cc(O)c(CN2CCCCC2)c2c1oc1c3ccccc3oc(=O)c12
- IC50 (Vero): 8 µg/mL (≈ 22 µM)
- selectivity ratio [1]: 64

SMILES: CCOC(=O)C1=C(NC(=O)c2c(F)c(F)c(F)c(F)c2F)SC2CN(CC)CCC12 (centres undefined)
- MIC [2]: 0.23 µM (≈ 0.104 µg/mL)

SMILES: CC(C)(C)c1cc(O)c(CN2CCCCC2)c2c1oc1c3ccccc3oc(=O)c12
- IC50 (Vero): 16 µg/mL (≈ 39.5 µM)
- selectivity ratio [1]: 128 to 256

SMILES: CC1CCN(Cc2c(O)ccc3oc4c5ccccc5oc(=O)c4c23)CC1
- IC50 (Vero): 16 µg/mL (≈ 44 µM)
- selectivity ratio [1]: 32

SMILES: CC(C)(C)c1cc(O)c(CN2CCCCC2)c2c1oc1c3cc(O)ccc3oc(=O)c12
- IC50 (Vero): 8 µg/mL (≈ 19 µM)
- selectivity ratio [1]: 64

SMILES: CN(C)[C@@H]1C(O)=C(C(N)=O)C(=O)[C@@]2(O)C(O)=C3C(=O)c4c(O)cccc4[C@@](C)(O)[C@H]3C[C@@H]12 [TETRACYCLINE]
- MIC (Bacillus subtilis): > 25 µg/mL

SMILES: O=C(O)Cc1ccccc1Nc1c(Cl)cccc1Cl [DICLOFENAC]
- half-life (in vitro [3]): 11.9 min
- CLint scaled (in vitro [4]): 105 mL/min/kg

SMILES: CCOC(=O)c1c(NC(=O)c2c(F)c(F)c(F)c(F)c2F)sc(C(N)=O)c1C
- MIC [5]: 0.5 µM (≈ 0.211 µg/mL)

SMILES: CN[C@H](CC(C)C)C(=O)N[C@H]1C(=O)N[C@@H](CC(N)=O)C(=O)N[C@H]2C(=O)N[C@H]3C(=O)N[C@H](C(=O)N[C@H](C(=O)O)c4cc(O)cc(O)c4-c4cc3ccc4O)[C@H](O)c3ccc(c(Cl)c3)Oc3cc2cc(c3O[C@@H]2O[C@H](CO)[C@@H](O)[C@H](O)[C@H]2O[C@H]2C[C@](C)(N)[C@H](O)[C@H](C)O2)Oc2ccc(cc2Cl)[C@H]1O [VANCOMYCIN]
- MIC (Escherichia coli [6]): > 25 µg/mL
- MIC (Escherichia coli [7]): > 25 µg/mL
- MIC (Bacillus subtilis): > 25 µg/mL

SMILES: O=c1oc2ccccc2c2oc3ccc(O)c(CN4CCCC4)c3c12
- IC50 (Vero): 8 µg/mL (≈ 23.9 µM)
- selectivity ratio [1]: 16

SMILES: O=c1oc2ccccc2c2oc3ccc(O)c(CN4CCCCC4)c3c12
- remaining at 1 h (in vitro [8]): 14.5%
- half-life (in vitro [3]): 21.4 min
- CLint scaled (in vitro [9]): 64.9 mL/min/kg
- CLint scaled (in vitro [4]): 58.4 mL/min/kg

SMILES: CC(C)(C)c1cc(O)c(CN2CCCCC2)c2c1oc1c3ccc(O)cc3oc(=O)c12
- MIC (Escherichia coli [6]): > 25 µg/mL
- IC50 (HEK293): 33.6 µM
- Activity [10]: inactive
- MIC (Escherichia coli [7]): > 25 µg/mL
- Activity [11]: Active
- IC50 [12]: 34.1 µM
- IC50 (Vero): 8 µg/mL (≈ 19 µM)
- IC50 (MRC5): 30.6 µM
- selectivity ratio [1]: 2048
- IC50 (HFL1): 22.3 µM
- MIC (Bacillus subtilis): > 25 µg/mL

SMILES: CCOC(=O)c1c(-c2ccccc2)oc2ccc(O)c(CN3CCC(C)CC3)c12
- MIC [13]: 1 µg/mL (≈ 2.54 µM)

SMILES: COC(=O)c1c(NC(=O)c2c(F)c(F)c(F)c(F)c2F)sc2c1CCCCC2
- MIC [5]: 1 µM (≈ 0.419 µg/mL)

SMILES: NNC(=O)c1ccncc1
- Activity [14]: Active

SMILES: C=CCCCCCCC[C@H]1C(=O)O[C@@H]1CCCCCNC(=O)c1ccc(N(C)C)cc1
- MIC [15]: 0.68 µg/mL (≈ 1.59 µM)

SMILES: CNC(=O)c1c(-c2ccc(O)cc2)oc2ccc(O)c(CN3CCCCC3)c12
- MIC [16]: 0.0313 µg/mL (≈ 0.0823 µM)
- Activity [11]: Active

SMILES: O=c1oc2ccc(O)cc2c2oc3ccc(O)c(CN4CCCCC4)c3c12
- IC50 (Vero): 4 µg/mL (≈ 10.9 µM)
- selectivity ratio [1]: 8

SMILES: O=c1oc2cc(O)ccc2c2oc3ccc(O)c(CN4CCCCC4)c3c12
- MIC (Escherichia coli [6]): > 25 µg/mL
- IC50 (HEK293): > 50 µM
- Activity [10]: Active
- MIC (Staphylococcus aureus): > 25 µg/mL
- MIC (Escherichia coli [7]): > 25 µg/mL
- remaining at 1 h (in vitro [8]): 73.6%
- IC50 [12]: 40.1 µM
- IC50 (Vero): 4 µg/mL (≈ 10.9 µM)
- IC50 (MRC5): > 50 µM
- selectivity ratio [1]: 1024
- IC50 (HFL1): > 50 µM
- MIC (Bacillus subtilis): > 25 µg/mL
- MBC99 [17]: 0.0039 to 0.0078 µg/mL

SMILES: CCOC(=O)c1c(-c2ccc(O)cc2)oc2ccc(O)c(CN3CCCCC3)c12
- remaining at 1 h (in vitro [8]): 10.8%
- CLint scaled (in vitro [4]): 66.3 mL/min/kg

SMILES: C[C@]12CC[C@H]3[C@@H](CCC4=CC(=O)CC[C@@]43C)[C@@H]1CC[C@@H]2O [TESTOSTERONE]
- remaining at 1 h (in vitro [8]): 12.5%
- CLint scaled (in vitro [4]): 62.8 mL/min/kg

SMILES: CC1CCCCN1Cc1c(O)ccc2oc3c4ccccc4oc(=O)c3c12 (centres undefined)
- IC50 (Vero): 16 µg/mL (≈ 44 µM)
- selectivity ratio [1]: 16

SMILES: CCOC(=O)c1c(-c2ccccc2)oc2ccc(O)c(CN3CCCCC3)c12
- remaining at 1 h (in vitro [8]): 46.6%
- half-life (in vitro [3]): 53 min
- CLint scaled (in vitro [9]): 26.2 mL/min/kg
- CLint scaled (in vitro [4]): 23.6 mL/min/kg
